Test results reported in paper PMC12864978, “Covalent modification of a glutamic acid inspired by HaloTag technology” (Nature Communications, 2026).
Read-outs that look alike come from different tables or passages of the source.

Columns and labels:
[1] = target: T1, PDEδ in the presence of Arl2•GppNHp (Homo sapiens, UniProt O43924); assay: Competitive fluorescence polarisation assay in the presence of Arl2•GppNHp; format: binding
T1 construct: His tag; made in house; host or cells: Escherichia coli Rosetta (BL21DE3), pET plasmids
From the text: Data are presented as mean ± s.e.m.

[2] = Compound stability in aqueous buffers; format: physicochemical
Experimental: Compound (1 mM) was incubated with the respective buffers (HEPES 20 mM, 150 mM NaCl, pH = 7.5; 0.2 M sodium acetate buffer, pH = 5.6; 0.2 M sodium citrate buffer, pH = 6.2; 0.2 M potassium phosphate buffer, pH = 7.4, 1 mM EDTA, with or without 10 mM GSH), with 1% DMSO adjusted for all conditions. […] Per cent (%) compound remaining in the solution was estimated by the ratio of areas under the curve, and data plotted were fitted to pseudo-1st kinetics in the calculation of rate constants (k) and half-lives (t1/2), where k is the negative slope of a linear regression of In (% compound remaining) over time. Half-lives (t1/2) in respective buffers and half-lives for GSH adduct formation (t1/2 GSH) were calculated with the following equations:1 t1/2=In2/k 2 kGSH=ktotalconsumptioninphosphatebufferinpresenceofGSH−k(phosphatebufferinabsenceofGSH) 3 t1/2GSH=In2/k(GSH) […]
a, Percentage (%) of compound remaining was monitored by HPLC-MS and data was fitted to pseudo-first kinetics in calculation of rate constants (k) and half-lives (t1/2) in respective buffers, where k is the negative slope of a linear regression of In (% compound remaining) over time and t 1/2 = In2/k. Initial […]
Initial GSH concentration =

[3] = target: Jurkat cell lysate proteome (Homo sapiens, UniProt O43924); assay: In-lysate thermal proteome profiling (TPP); settings: 10 µM, 15 min
[4] = target: T2, Jurkat cell lysate proteome (Homo sapiens, UniProt P24666); assay: In-lysate thermal proteome profiling (TPP)
T2 sequence (P24666 1-158): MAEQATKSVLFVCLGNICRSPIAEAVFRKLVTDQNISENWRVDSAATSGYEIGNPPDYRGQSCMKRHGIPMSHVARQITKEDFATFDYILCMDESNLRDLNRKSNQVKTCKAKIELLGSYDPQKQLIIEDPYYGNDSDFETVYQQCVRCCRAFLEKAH

[5] = target: Jurkat cell lysate proteome (Homo sapiens, UniProt P36404); assay: In-lysate thermal proteome profiling (TPP)
[6] = target: Jurkat cell lysate proteome (Homo sapiens, UniProt P49773); assay: In-lysate thermal proteome profiling (TPP)
[7] = target: Jurkat cell lysate proteome (Homo sapiens, UniProt P56134); assay: In-lysate thermal proteome profiling (TPP)
[8] = target: Jurkat cell lysate proteome (Homo sapiens, UniProt P62318); assay: In-lysate thermal proteome profiling (TPP)
[9] = target: Jurkat cell lysate proteome (Homo sapiens, UniProt Q15382); assay: In-lysate thermal proteome profiling (TPP); settings: 10 µM, 15 min
[10] = target: T3, Jurkat cell lysate proteome (Homo sapiens, UniProt Q16854); assay: In-lysate thermal proteome profiling (TPP)
T3 sequence (Q16854 40-277): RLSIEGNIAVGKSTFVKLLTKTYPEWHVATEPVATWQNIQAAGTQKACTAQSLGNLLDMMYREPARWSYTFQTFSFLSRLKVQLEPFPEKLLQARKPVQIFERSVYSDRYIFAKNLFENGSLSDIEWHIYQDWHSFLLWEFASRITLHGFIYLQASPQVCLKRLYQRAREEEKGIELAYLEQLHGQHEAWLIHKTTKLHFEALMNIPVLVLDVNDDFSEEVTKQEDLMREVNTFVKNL

[11] = target: T4, Jurkat cell lysate proteome (Homo sapiens, UniProt Q99523); assay: In-lysate thermal proteome profiling (TPP)
T4 sequence (Q99523 78-831): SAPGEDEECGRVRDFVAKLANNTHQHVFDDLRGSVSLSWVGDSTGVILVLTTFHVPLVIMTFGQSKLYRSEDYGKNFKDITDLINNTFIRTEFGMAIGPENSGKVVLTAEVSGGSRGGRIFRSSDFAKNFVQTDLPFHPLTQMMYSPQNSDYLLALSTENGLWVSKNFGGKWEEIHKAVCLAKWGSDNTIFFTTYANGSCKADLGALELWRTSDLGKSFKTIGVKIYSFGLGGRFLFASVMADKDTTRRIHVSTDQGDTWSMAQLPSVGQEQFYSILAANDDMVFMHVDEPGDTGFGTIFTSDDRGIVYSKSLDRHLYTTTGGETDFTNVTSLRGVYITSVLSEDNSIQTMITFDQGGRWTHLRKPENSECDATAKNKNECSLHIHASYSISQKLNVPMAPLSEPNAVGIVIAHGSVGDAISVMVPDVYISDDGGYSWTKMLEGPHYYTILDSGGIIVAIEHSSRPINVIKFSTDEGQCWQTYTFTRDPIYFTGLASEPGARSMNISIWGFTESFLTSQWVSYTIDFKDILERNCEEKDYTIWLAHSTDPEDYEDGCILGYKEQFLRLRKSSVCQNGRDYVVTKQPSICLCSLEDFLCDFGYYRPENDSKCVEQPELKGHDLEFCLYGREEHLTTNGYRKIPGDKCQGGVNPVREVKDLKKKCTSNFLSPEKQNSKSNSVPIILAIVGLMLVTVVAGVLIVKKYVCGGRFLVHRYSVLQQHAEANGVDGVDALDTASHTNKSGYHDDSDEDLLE

[12] = target: Jurkat cell lysate proteome (Homo sapiens, UniProt Q9H583); assay: In-lysate thermal proteome profiling (TPP)

Cc1ccc(-n2nc3c(=O)n(CCCCS(=O)(=O)N(CCc4cccc(CCBr)c4)CC4CCNCC4)nc(C)c3c2C)cc1 [6a]
IC50 ([1]; 37 °C, PDEδ 40 nM, Arl2•GppNHp 40 nM, FA probe 24 nM): 10.1 ± 2.6 nM | IC50 ([1]; pre-incubated with PDEδ at 37 °C overnight before addition of Arl2•GppNHp): 4.8 ± 1.5 nM | half-life at 1 mM ([2]; HEPES buffer, pH 7.5, 37 °C, compound 1 mM, read-out: half-life t1/2 in HEPES buffer (converted)): 20 days | half-life at 1 mM ([2]; acetate buffer, pH 5.6, 37 °C, read-out: half-life t1/2 in acetate buffer (converted)): 6.04 days | ΔI67°C PDE6D [3]: 21 ± 7% | ΔAUC ACP1 ([4]; 10 µM, 15 min): 2.1 | ΔI67°C ACP1 ([4]; 10 µM, 15 min): 0 ± 4% | ΔTm at 10 µM ([4]; read-out: ΔTm ACP1, 10 µM, 15 min): 2.3 ± 0.3 °C | ΔAUC Arl2 ([5]; 10 µM, 15 min): 0.97 | ΔTm at 10 µM ([5]; read-out: ΔTm Arl2, 10 µM, 15 min): -0.92 °C | ΔAUC HINT1 ([6]; 10 µM, 15 min): 3.6 | ΔI67°C HINT1 ([6]; 10 µM, 15 min): 3 ± 6% | ΔTm at 10 µM ([6]; read-out: ΔTm HINT1, 10 µM, 15 min): 4 ± 1.4 °C | ΔI67°C ATP5J2 ([7]; 10 µM, 15 min): 1 ± 1% | ΔTm at 10 µM ([7]; read-out: ΔTm ATP5J2, 10 µM, 15 min): -2 ± 1 °C | ΔAUC SNRPD3 ([8]; 10 µM, 15 min): -2 | ΔI67°C SNRPD3 ([8]; 10 µM, 15 min): -9 ± 11% | ΔTm at 10 µM ([8]; read-out: ΔTm SNRPD3, 10 µM, 15 min): 0.8 ± 0.7 °C | ΔAUC RHEB [9]: -1.5 | ΔI67°C RHEB [9]: -6 ± 8% | ΔTm RHEB [9]: -0.9 ± 0.8 °C | ΔAUC RHEB ([9]; listed as DeltaTag): −1.5 | ΔTm RHEB ([9]; listed as DeltaTag): −0.89 °C | ΔAUC DGUOK ([10]; 10 µM, 15 min): -2.3 | ΔI67°C DGUOK ([10]; 10 µM, 15 min): 0 ± 2% | ΔTm at 10 µM ([10]; read-out: ΔTm DGUOK, 10 µM, 15 min): -2.9 ± 1.9 °C | ΔAUC SORT1 ([11]; 10 µM, 15 min): -3.6 | ΔI67°C SORT1 ([11]; 10 µM, 15 min): -16 ± 7% | ΔTm at 10 µM ([11]; read-out: ΔTm SORT1, 10 µM, 15 min): -2.2 ± 2.4 °C | ΔAUC HEATR1 ([12]; 10 µM, 15 min): -2.9 | ΔI67°C HEATR1 ([12]; 10 µM, 15 min): -8 ± 6% | ΔTm at 10 µM ([12]; read-out: ΔTm HEATR1, 10 µM, 15 min): -2.8 ± 1.1 °C
